Test results published in article PMC8063935, “Amphipathic Peptide Antibiotics with Potent Activity against Multidrug-Resistant Pathogens” (Pharmaceutics, 2021).
Values after ≈ are worked out from the molar mass of the structure shown. Like-named read-outs stand apart in the source and are kept apart here. Where a SMILES comes first, the peptide text is derived from it.

Tests used:
[1] = tested on: MRSA T144; assay: microbe, parasite or virus in culture; format: cell-based, Staphylococcus aureus; settings: for MIC: micro-broth dilution, CLSI 2018, ~1.5 × 10^6 CFUs per mL, 37 °C, 16–18 h; for IC50: OD600 of micro-broth dilution plates, four-parameter fit
Experimental: (§1) The MICs of all drugs were determined by micro-broth dilution method according to CLSI 2018 guidelines. The bacterial suspension used in the experiment was appropriate 1.5 × 10^6 colony-forming units (CFUs) per mL and mixed with the drug solution in a sterilized 96-well microtiter plate (Corning, New York, USA), then incubated at 37 °C for 16–18 h. MIC value was defined as the minimum drug concentration without visible bacteria. Meanwhile, the density of the bacteria at 600 nm was measured, and the corresponding IC50 was calculated using log (inhibitor) vs. response variable slope (four parameters) in Graphpad Prism version 8.3.0 software (San Diego, CA, USA). To assess the role of ROS production in the antibacterial activity of WW307, increasing concentrations of N-acetylcysteine (NAC) from 0 to 5 mM were added in culture medium, followed by MICs test.

[2] = tested on: S. aureus G16 (RIF^R); assay: microbe, parasite or virus in culture; format: cell-based, Staphylococcus aureus; settings: for IC50: OD600 of micro-broth dilution plates, four-parameter fit
Experimental: as §1

[3] = tested on: E. coli 1F28 (tet(X4)); assay: microbe, parasite or virus in culture; format: cell-based, Escherichia coli; settings: for MIC: micro-broth dilution, CLSI 2018, ~1.5 × 10^6 CFUs per mL, 37 °C, 16–18 h; for IC50: OD600 of micro-broth dilution plates, four-parameter fit
Experimental: as §1

[4] = tested on: E. coli G92 (mcr-1); assay: microbe, parasite or virus in culture; format: cell-based, Escherichia coli; settings: for IC50: OD600 of micro-broth dilution plates, four-parameter fit
Experimental: as §1

[5] = tested on: E. coli C3 (blaNDM-1); assay: MIC / IC50, micro-broth dilution; format: cell-based, Escherichia coli; settings: for MIC: micro-broth dilution, CLSI 2018, ~1.5 × 10^6 CFUs per mL, 37 °C, 16–18 h; for IC50: OD600 of micro-broth dilution plates, four-parameter fit
Experimental: as §1

[6] = tested on: E. coli CP131 (mcr-3); assay: MIC / IC50, micro-broth dilution; format: cell-based, Escherichia coli; settings: for IC50: OD600 of micro-broth dilution plates, four-parameter fit
Experimental: as §1

[7] = tested on: E. coli G6 (blaNDM-5); assay: MIC / IC50, micro-broth dilution; format: cell-based, Escherichia coli; settings: for MIC: micro-broth dilution, CLSI 2018, ~1.5 × 10^6 CFUs per mL, 37 °C, 16–18 h; for IC50: OD600 of micro-broth dilution plates, four-parameter fit
Experimental: as §1

[8] = tested on: A. baumannii C222 (tet(X6)); assay: microbe, parasite or virus in culture; format: cell-based, Acinetobacter baumannii; settings: for IC50: OD600 of micro-broth dilution plates, four-parameter fit
Experimental: as §1

[9] = tested on: P. cibarius HNCF44W (blaNDM-1 + tet(X6)); assay: MIC / IC50, micro-broth dilution; format: cell-based; settings: for MIC: micro-broth dilution, CLSI 2018, ~1.5 × 10^6 CFUs per mL, 37 °C, 16–18 h; for IC50: OD600 of micro-broth dilution plates, four-parameter fit
Experimental: as §1

[10] = tested on: E. coli B2 (mcr-1 + blaNDM-5); assay: microbe, parasite or virus in culture; format: cell-based, Escherichia coli; settings: for IC50: OD600 of micro-broth dilution plates, four-parameter fit
Experimental: as §1

[11] = tested on: Sheep RBCs; assay: Hemolysis analysis; format: cell-based; settings: 8% sheep red blood cell suspension, 37 °C, 1 h, released hemoglobin at 576 nm; PBS negative, ddH2O positive control
Experimental: The hemolytic activity on all peptides was evaluated based on previous report. Briefly, fresh Sheep RBCs were washed twice with phosphate buffer (PBS), and then 8% red blood cell suspension was prepared. The increasing concentrations of AMPs and melittin were mixed with 8% red blood cell suspension, respectively, and incubated at 37 °C for 1 h. The sterilized PBS and double-distilled water (ddH2O) were used as blank and positive control, respectively. Afterwards, the supernatant was centrifuged to measure the absorption of released hemoglobin at 576 nm by an Infinite M200 Microplate reader (Tecan, Männedorf, Switzerland). The corresponding hemolysis rate was calculated.

[12] = Staphylococcus aureus, read-out: MIC
[13] = Escherichia coli, read-out: MIC
[14] = S. aureus G16 (RIF^R), micro-broth dilution, CLSI 2018, ~1.5 × 10^6 CFUs per mL, 37 °C, 16–18 h
[15] = E. coli B2 (mcr-1 + blaNDM-5), micro-broth dilution, CLSI 2018, ~1.5 × 10^6 CFUs per mL, 37 °C, 16–18 h
[16] = E. coli G92 (mcr-1), micro-broth dilution, CLSI 2018, ~1.5 × 10^6 CFUs per mL, 37 °C, 16–18 h
[17] = E. coli CP131 (mcr-3), micro-broth dilution, CLSI 2018, ~1.5 × 10^6 CFUs per mL, 37 °C, 16–18 h
[18] = A. baumannii C222 (tet(X6)), micro-broth dilution, CLSI 2018, ~1.5 × 10^6 CFUs per mL, 37 °C, 16–18 h

Compound | MIC [1, 12] | MIC ([2]; Staphylococcus aureus) | MIC [3, 13] | MIC ([4]; Escherichia coli) | MIC [5, 13] | MIC [7, 13] | MIC ([8]; Acinetobacter baumannii) | MIC ([9]; read-out: MIC) | IC50 [1] | MIC [1] | IC50 ([2]; S. aureus G16 (RIF^R)) | MIC [2, 14] | MIC [3] | MIC [10, 15] | MIC [4, 16] | MIC [5] | MIC [6, 17] | MIC [7] | MIC [8, 18] | MIC [9] | further results
CN(C)c1cc(NC(=O)CNC(C)(C)C)c(O)c2c1C[C@H]1C[C@H]3[C@H](N(C)C)C(O)=C(C(N)=O)C(=O)[C@@]3(O)C(O)=C1C2=O [TIG, tigecycline] | 0.25 µg/mL (≈ 0.427 µM) | < 0.0625 µg/mL | 16 µg/mL (≈ 27.3 µM) | 4 µg/mL (≈ 6.83 µM) | 2 µg/mL (≈ 3.41 µM) | 2 µg/mL (≈ 3.41 µM) | 64 µg/mL (≈ 109 µM) | 64 µg/mL (≈ 109 µM) |  |  |  |  |  |  |  |  |  |  |  |  | MIC ([6]; Escherichia coli, E. coli CP131 (mcr-3), micro-broth dilution, CLSI 2018, ~1.5 × 10^6 CFUs per mL, 37 °C, 16–18 h, read-out: MIC): 2 µg/mL (≈ 3.41 µM)
C[C@@H](O)[C@H]1C(=O)N2C(C(=O)O)=C(S[C@@H]3CN[C@H](C(=O)N(C)C)C3)[C@H](C)[C@H]12 [MEM, meropenem] | 1 µg/mL (≈ 2.61 µM) | 2 µg/mL (≈ 5.22 µM) | 0.25 µg/mL (≈ 0.652 µM) | < 0.125 µg/mL | 8 µg/mL (≈ 20.9 µM) | 64 µg/mL (≈ 167 µM) | < 0.125 µg/mL | > 16 µg/mL |  |  |  |  |  |  |  |  |  |  |  |  | MIC ([10]; Escherichia coli): 32 µg/mL (≈ 83.4 µM); MIC ([6]; Escherichia coli): < 0.125 µg/mL
CC(C)C[C@H](NC(=O)[C@H](Cc1c[nH]c2ccccc12)NC(=O)[C@H](Cc1c[nH]c2ccccc12)NC(=O)[C@@H](N)Cc1c[nH]c2ccccc12)C(=O)N[C@@H](CCCNC(=N)N)C(=O)N[C@@H](CCCNC(=N)N)C(=O)N[C@@H](CCCNC(=N)N)C(=O)N[C@@H](Cc1c[nH]c2ccccc12)C(N)=O [WW304] (H-WWWLRRRW-NH2) |  |  |  |  |  |  |  |  | 4.59 µg/mL (≈ 3.42 µM) | 8 µg/mL (≈ 5.95 µM) | 2.11 µg/mL (≈ 1.57 µM) | 8 µg/mL (≈ 5.95 µM) | 32 µg/mL (≈ 23.8 µM) | 64 µg/mL | 64 µg/mL (≈ 47.6 µM) | 64 µg/mL (≈ 47.6 µM) | 32 µg/mL (≈ 23.8 µM) | 64 µg/mL (≈ 47.6 µM) | 64 µg/mL (≈ 47.6 µM) | 64 µg/mL (≈ 47.6 µM) | IC50 [3]: 18.13 µg/mL (≈ 13.5 µM); IC50 ([10]; E. coli B2 (mcr-1 + blaNDM-5)): 36.12 µg/mL; IC50 ([4]; E. coli G92 (mcr-1)): 31.96 µg/mL (≈ 23.8 µM); IC50 [5]: 34.76 µg/mL (≈ 25.9 µM); IC50 ([6]; E. coli CP131 (mcr-3)): 18.26 µg/mL (≈ 13.6 µM); IC50 [7]: 36.04 µg/mL (≈ 26.8 µM); IC50 ([8]; A. baumannii C222 (tet(X6))): 34.74 µg/mL (≈ 25.9 µM); IC50 [9]: 33.60 µg/mL (≈ 25 µM); HL50 (peptide concentration that causes 50% hemolysis) [11]: > 128 µg/mL
CC[C@H](C)[C@H](NC(=O)CN)C(=O)NCC(=O)N[C@@H](C)C(=O)N[C@H](C(=O)N[C@@H](CC(C)C)C(=O)N[C@@H](CCCCN)C(=O)N[C@H](C(=O)N[C@@H](CC(C)C)C(=O)N[C@H](C(=O)N[C@H](C(=O)NCC(=O)N[C@@H](CC(C)C)C(=O)N1CCC[C@H]1C(=O)N[C@@H](C)C(=O)N[C@@H](CC(C)C)C(=O)N[C@H](C(=O)N[C@@H](CO)C(=O)N[C@@H](Cc1c[nH]c2ccccc12)C(=O)N[C@H](C(=O)N[C@@H](CCCCN)C(=O)N[C@@H](CCCNC(=N)N)C(=O)N[C@@H](CCCCN)C(=O)N[C@@H](CCCNC(=N)N)C(=O)N[C@@H](CCC(N)=O)C(=O)N[C@@H](CCC(N)=O)C(N)=O)[C@@H](C)CC)[C@@H](C)CC)[C@@H](C)O)[C@@H](C)O)C(C)C)C(C)C [Melittin, melittin] |  |  |  |  |  |  |  |  | 3.54 µg/mL (≈ 1.24 µM) | 4 µg/mL (≈ 1.41 µM) | 1.19 µg/mL (≈ 0.418 µM) | 2 µg/mL (≈ 0.703 µM) | 4 µg/mL (≈ 1.41 µM) | 8 µg/mL | 4 µg/mL (≈ 1.41 µM) | 8 µg/mL (≈ 2.81 µM) | 4 µg/mL (≈ 1.41 µM) | 4 µg/mL (≈ 1.41 µM) | 8 µg/mL (≈ 2.81 µM) | 4 µg/mL (≈ 1.41 µM) | IC50 [3]: 2.62 µg/mL (≈ 0.92 µM); IC50 ([10]; E. coli B2 (mcr-1 + blaNDM-5)): 4.36 µg/mL; IC50 ([4]; E. coli G92 (mcr-1)): 3.55 µg/mL (≈ 1.25 µM); IC50 [5]: 5.03 µg/mL (≈ 1.77 µM); IC50 ([6]; E. coli CP131 (mcr-3)): 3.39 µg/mL (≈ 1.19 µM); IC50 [7]: 2.38 µg/mL (≈ 0.836 µM); IC50 ([8]; A. baumannii C222 (tet(X6))): 4.16 µg/mL (≈ 1.46 µM); IC50 [9]: 2.39 µg/mL (≈ 0.84 µM); HL50 (peptide concentration that causes 50% hemolysis) [11]: 14.39 µg/mL
colistin |  |  |  |  |  |  |  |  |  | 16 µg/mL |  | 1 µg/mL | 0.125 µg/mL | 8 µg/mL | 4 µg/mL | <0.125 µg/mL | 4 µg/mL | 0.5 µg/mL | <0.125 µg/mL | >256 µg/mL | 
